In assay [1] the target is T1, CB1 receptor (Homo sapiens, UniProt P21554).
T1 construct: expressed in transfected cells; host or cells: CHO-K1
In words: Inhibition of [3H]CP55940 binding to cloned human CB1 receptor membranes. As for the experimental part: (§1) Ki values in receptor binding experiments were determined by Cheng-Prusoff correction of IC50 values derived from automated nonlinear regression analysis of sigmoidal titration curves using a three-parameter modification (slope set to 1.0) of the four-parameter equation described in Cheng, Y.-C. and W. H. Prusoff, Biochem. Pharmacol. 22:3099-3108 (1973) and DeLean et al., Am. J. Physiol. 235:E97-E102 (1978).
(§2) Chinese hamster ovary cells (CHO-K1), stably transfected with either hCB1 or hCB2, were washed two times with cold PBS, scraped from 500 cm^2 tissue culture plates, and pelleted by centrifugation at 1000×g for 10 min. […]
(§3) Binding assays were performed by incubating 0.2-0.6 nM (34,000-100,000 dpm) [^3H]CP55940 with membranes prepared from cells expressing cloned human CB1 or CB2 receptors in buffer A (50 mM Tris HCl, pH 7.0, 5.0 mM MgCl2, 1.0 mM EGTA and 1.0 mg/mL fatty acid free bovine serum albumin). […] The filters were rinsed 6 times with one mL of cold wash buffer (50 mM Tris HCl, pH 7.0, 5.0 mM MgCl2, 1.0 mM EGTA and 0.75 mg/mL fatty acid free bovine serum albumin), 30 μL of MicroScint 20 was added to each filter and the radioactivity on the filters determined by scintillation spectroscopy. Nonspecific binding was determined in the presence of 10 μM WIN55212-2.

Assay [2] concerns the target T2, CB2 receptor (Homo sapiens, UniProt P34972).
T2 construct: expressed in transfected cells; host or cells: CHO-K1
Kind of assay: Inhibition of [3H]CP55940 binding to cloned human CB2 receptor membranes. As for the experimental part:
as §1, §2, §3

Assay [3] concerns the target T2, CB2 receptor. In words: hCB2-mediated [35S]GTPγS binding. The class given is biochemical. As for the experimental part:
(§4) EC50 values in functional assays were also derived from automated nonlinear regression analysis of sigmoidal titration curves using the three-parameter modification of the four-parameter equation.
as §2
(§5) hCB1-Mediated stimulation of [^35S]GTPγS binding was measured in a mixture containing 100-150 pM [^35S]GTPγS, 150 mM NaCl, 45 mM MgCl2, […], 0.4 mM DTT, 1 mM EGTA, 1 mg/mL fatty acid free BSA, 25 μg of membrane protein and agonist in a total volume of 250 μL of buffer A in 96 well Basic Flashplates (Perkin Elmer). After incubation at room temperature for 2 hours the plates were centrifuged at 800×g at 4° C. for 5 min and the radioactivity bound to the membranes was determined by scintillation spectrometry using the Topcount (Perkin Elmer).
hCB2-Mediated [35 S]GTPγS binding was measured in the same way except the assay mixture contained […] and the incubation time was 6 hours. […] After incubation at 30° C. for 2 hours, the plates were centrifuged at 800×g at 4° C. for 5 min and the radioactivity bound to the membrane was determined by scintillation spectrometry using the Topcount (Perkin Elmer).
On the technique in general: GTPγS resists hydrolysis and so accumulates on activated G proteins.

Assay [4] has as its target T1, CB1 receptor. In words: hCB1-mediated stimulation of [35S]GTPγS binding. As to conditions: in vitro functional assay. The class given is biochemical. As for the experimental part:
as §4
Chinese hamster ovary cells (CHO-K1), stably transfected with either hCB1 or hCB2, were washed two times with cold PBS, scraped from 500 cm^2 tissue culture plates, and pelleted by centrifugation at 1000×g for 10 min. The supernatant was discarded and the pellet was resuspended in Tris assay buffer (50 mM Tris HCl, pH 7.8, containing 1.0 mM EGTA, 5.0 mM MgCl2, […], and […] aprotinin), homogenized with a Polytron homogenizer (Brinkmann) at a setting of 1 for 20 sec and centrifuged at 38,000×g for 20 min at 4° C. […]
as §5

This is an account of results in patent US7544676B2, “Sulfamoyl benzamides and methods of their use” (Adolor Corporation, priority 2005, dated 2009).

T1 sequence (P21554 whole entry): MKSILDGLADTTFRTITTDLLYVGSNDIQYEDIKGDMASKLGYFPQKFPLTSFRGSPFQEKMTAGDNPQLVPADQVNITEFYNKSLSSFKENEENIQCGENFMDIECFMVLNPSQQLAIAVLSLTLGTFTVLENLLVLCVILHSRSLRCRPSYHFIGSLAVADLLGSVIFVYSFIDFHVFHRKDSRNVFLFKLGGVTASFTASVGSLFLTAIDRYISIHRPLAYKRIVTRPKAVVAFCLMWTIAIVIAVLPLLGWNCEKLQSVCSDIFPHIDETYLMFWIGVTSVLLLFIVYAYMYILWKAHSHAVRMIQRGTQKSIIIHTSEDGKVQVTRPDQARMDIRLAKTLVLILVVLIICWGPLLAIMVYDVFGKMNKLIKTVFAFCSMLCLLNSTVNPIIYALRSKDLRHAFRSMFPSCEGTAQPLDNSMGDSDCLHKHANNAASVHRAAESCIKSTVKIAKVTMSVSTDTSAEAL
T2 sequence (P34972 whole entry): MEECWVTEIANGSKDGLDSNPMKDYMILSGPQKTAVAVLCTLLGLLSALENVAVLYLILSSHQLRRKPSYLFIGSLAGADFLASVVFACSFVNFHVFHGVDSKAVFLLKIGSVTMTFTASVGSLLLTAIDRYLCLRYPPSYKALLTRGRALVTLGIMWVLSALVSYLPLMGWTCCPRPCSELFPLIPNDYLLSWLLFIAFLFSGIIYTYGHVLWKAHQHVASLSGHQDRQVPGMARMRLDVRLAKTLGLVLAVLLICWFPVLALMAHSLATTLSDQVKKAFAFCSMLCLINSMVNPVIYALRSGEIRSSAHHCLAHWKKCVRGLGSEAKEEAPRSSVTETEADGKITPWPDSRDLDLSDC

One may read the Ki as a measure of affinity in units of concentration, obtained from inhibition or displacement. What is called IC50 is the midpoint of a concentration-inhibition curve. In the case of `COCCNc1ccc(C(=O)NC2C(C)(C)[C@@H]3CC[C@@]2(C)C3)cc1S(=O)(=O)N1CCOCC1` (stereo partly drawn) [Compound 2D, 4-(2-methoxyethylamino)-3-(morpholinosulfonyl)-N-((1S,4R)-1,3,3-trimethylbicyclo[2.2.1]heptan-2-yl)benzamide], the Ki on CB1 receptor [1] worked out at 1310 nM; at CB2 receptor [2], 1.6 nM. Also, the IC50 at CB2 receptor [3] (antagonist mode, read-out: in vitro CB2 receptor antagonist potency (IC50)) came to 8.5 nM.
As a reminder, the EC50 is the concentration giving half of the maximal effect. Take `CNc1ccc(C(=O)N[C@@H]2C(C)(C)[C@@H]3CC[C@@]2(C)C3)cc1S(=O)(=O)N(C)C` [Compound 1X, 3-(N,N-dimethylsulfamoyl)-4-(methylamino)-N-((1S,2S,4R)-1,3,3-trimethylbicyclo[2.2.1]heptan-2-yl)benzamide]: the Ki was found to be 1930 nM on CB1 receptor [1] and 8.9 nM at CB2 receptor [2]. In addition, the EC50 on CB2 receptor [3] (agonist mode, read-out: in vitro CB2 receptor agonist potency (EC50)) came to 18.6 nM. Further, the “in vitro CB1 receptor agonist activity” value at CB1 receptor [4] is reported as “no in vitro CB1 receptor agonist activity”.
